Measurements reported in patent US20140056811A1, “NEW CELL-PENETRATING PEPTIDES AND USES THEREOF” (COMPUGEN LTD., priority 2010, published 2014).
Where two headings read alike, the source gives them in different places. Square brackets hold non-standard residues; d marks the D form. Ends that are not written are not given here. Peptide text beside a SMILES is read from it. * marks the point of attachment. 5FAM = O=C1OC2(c3ccc(O)cc3Oc3cc(O)ccc32)c2ccc(C(=O)*)cc21

Tests used:
[1] = In vitro cytotoxicity by LDH (lactate dehydrogenase) analysis; type: cell-based; settings: human; 5-FAM labeled peptides, 10 uM (also stated 10 ug/ml), 1 h, 37° C., HeLa cells; read-out: LDH % cytotoxicity
Method: In order to assess the in vitro cytotoxicity of the peptides, an LDH (lactate dehydrogenase) analysis was carried out, using LDH kit (Promega G1782), according to manufacturer instructions.
Briefly, HeLa cells from 5 ml of confluent T75 flask were seed in 96 well plate at 10×10^4 cells/mL in 0.1 ml DMEM supplied with 10% Fetal Calf Serum. After 24 hrs incubation with growth medium, wells were replaced with Serum Free growth medium for 24 hrs, and then cells were washed with OptiMEM and replaced with 0.1 ml peptide solution at 10 uM for 1 h at 37° C. 50 ul of supernatant were transferred to the new plate and detected according to Cyto Tox 96, Non Radioactive cytotoxicity assay, (LDH kit Promega G1782). Table 5 presents the results of in vitro cytotoxicity measurements by LDH for S22, S24, S36 and S40 peptides and two positive control peptides; Tat(47-57) and R9. LDH experiment was done with fluorescent labeled (5-FAM) peptides in concentration of […] and the % of cytotoxicity was measured by LDH levels.

HeLa cells = type: cell-based; settings: for cell viability (MTT), FIG. 7: 26.6 ug/ml and 8.88 ug/ml, 16 hours, normalized by untreated cells; for dose response of cell viability (MTT), FIG. 8: average of duplicates
Method: In order to examine CPPs capability to deliver into the cell a cargo, the ability of the CPPs to facilitate intracellular cargo delivery of a pro apoptotic peptide—klaklakklaklak (also referred herein as (klaklak)2), was examined. (klaklak)2 is unable to efficiently penetrate cell membranes on its own, and thus using this pro-apoptotic peptide requires efficient intracellular delivery to trigger mitochondrial disruption and mitochondrial-dependent apoptosis. HeLa cells were seeded in DMEM supplemented with 10% fetal Bovine serum (FBS) in 96-well plates, 10,000 cells/well in a total volume of 200 μL 24 hours prior to their treatment with the peptide. Cells were incubated with any one of the CPPs and/or any one of the control peptides ([…]) conjugated to pro-apoptotic peptide (klaklak)2 through a short flexible linker of Gly-Gly (as described in the above peptide synthesis section for SEQ ID NOs: 24-32) for 16 hours under tissue culture conditions. Cell viability was then assessed using MTT[3-(4,5-dimethylthiazol-2-yl)-2,5-diphenyl-2H-tetrazo-liumbromide] assay (Catalog number M5655, Sigma, Israel). MTT reagent was added to cells for 4 hours, following cell lysis using DMSO and absorbance was measured at 492 nm. As positive controls (klaklak)2 conjugated to TAT or R9 were used, corresponding to SEQ ID NOs:26 and 25, respectively. As negative controls (klaklak)2 on its own (SEQ ID NO:31), (klaklak)2 conjugated to N5 ([…]) and peptides not conjugated to (klaklak)2 were used.

| Molecule | cytotoxicity at 1 h, 10 µM [1] [%] | cell viability (MTT), FIG. 7 (HeLa cells; HeLa cells) | further results |
| --- | --- | --- | --- |
| N=C(N)NCCC[C@H](NC(=O)[C@H](CCCNC(=N)N)NC(=O)[C@H](CCCNC(=N)N)NC(=O)[C@H](CCCNC(=N)N)NC(=O)[C@H](CCCNC(=N)N)NC(=O)[C@H](CCCNC(=N)N)NC(=O)[C@H](CCCNC(=N)N)NC(=O)[C@H](CCCNC(=N)N)NC(=O)[C@H](CCCNC(=N)N)NC(=O)c1ccc2c(c1)C(=O)OC21c2ccc(O)cc2Oc2cc(O)ccc21)C(N)=O [9R, RRRRRRRRR, reference compound] | 2 | – | – |
| FLRRRRRFTRQTGG-klaklakklaklak (Ac-FLRRRRRFTRQTGG[dK][dL][dA][dK][dL][dA][dK][dK][dL][dA][dK][dL][dA][dK]-NH2) [S40-klaklak, S40 conjugated to (klaklak)2 with GG linker] | – | reduction in cell viability | – |
| YGRKKRRQRRRGG-klaklakklaklak (YGRKKRRQRRRGGKLAKLAKKLAKLAK) [TAT-klaklak, positive control TAT conjugated to (klaklak)2 with GG linker, reference compound] | – | – | dose response of cell viability (MTT), FIG. 8 (HeLa cells; 16 hr, HeLa cells): effective dose response curve |
| CC(=O)N[C@@H](CCCCN)C(=O)N[C@@H](CCCCN)C(=O)N[C@H](C(=O)N[C@@H](CC(C)C)C(=O)N[C@@H](CCCCN)C(=O)N[C@@H](CCCCN)C(=O)N[C@@H](CC(C)C)C(=O)N[C@@H](Cc1c[nH]c2ccccc12)C(=O)N[C@@H](CCCCN)C(=O)N[C@@H](CCCCN)C(=O)N[C@@H](CCCCN)C(=O)N[C@@H](CCCCN)C(=O)N[C@@H](CCCNC(=N)N)C(=O)N[C@@H](CCCCN)C(=O)NCC(=O)NCC(=O)N[C@H](CCCCN)C(=O)N[C@H](CC(C)C)C(=O)N[C@H](C)C(=O)N[C@H](CCCCN)C(=O)N[C@H](CC(C)C)C(=O)N[C@H](C)C(=O)N[C@H](CCCCN)C(=O)N[C@H](CCCCN)C(=O)N[C@H](CC(C)C)C(=O)N[C@H](C)C(=O)N[C@H](CCCCN)C(=O)N[C@H](CC(C)C)C(=O)N[C@H](C)C(=O)N[C@H](CCCCN)C(N)=O)[C@@H](C)O [S24-klaklak, KKTLKKLWKKKKRKGG-klaklakklaklak] (Ac-KKTLKKLWKKKKRKGG[dK][dL][dA][dK][dL][dA][dK][dK][dL][dA][dK][dL][dA][dK]-NH2) | – | reduction in cell viability | EC50 (HeLa cells; 16 hr, HeLa cells, unit only from the X axis (log uM concentration), read-out: EC50 of cell viability (MTT), FIG. 9): 8.45 µM |
| klaklakklaklak (KLAKLAKKLAKLAK; D-amino acids) [(klaklak)2, pro apoptotic peptide used as cargo, reference compound] | – | almost no reduction in cell viability | – |
| KPSARMLLLKGFGKGG-klaklakklaklak (Ac-KPSARMLLLKGFGKGG[dK][dL][dA][dK][dL][dA][dK][dK][dL][dA][dK][dL][dA][dK]-NH2) [S8-klaklak, S8 conjugated to (klaklak)2 with GG linker] | – | reduction in cell viability | – |
| VATIKSVSFYTRKGG-klaklakklaklak (Ac-VATIKSVSFYTRKGG[dK][dL][dA][dK][dL][dA][dK][dK][dL][dA][dK][dL][dA][dK]-NH2) [N2-klaklak, negative control peptide N2 conjugated to (klaklak)2 with GG linker, reference compound] | – | – | dose response of cell viability (MTT), FIG. 8 (HeLa cells; 16 hr, HeLa cells): no dose response curve—no effect |
| RRRRRRRRRGG-klaklakklaklak (RRRRRRRRRGG[dK][dL][dA][dK][dL][dA][dK][dK][dL][dA][dK][dL][dA][dK]) [R9-klaklak, positive control R9 conjugated to (klaklak)2 with GG linker, reference compound] | – | – | dose response of cell viability (MTT), FIG. 8 (HeLa cells; 16 hr, HeLa cells): effective dose response curve |
| CC(=O)N[C@@H](CCCNC(=N)N)C(=O)N[C@@H](CCCNC(=N)N)C(=O)N[C@@H](CCCNC(=N)N)C(=O)N[C@@H](Cc1c[nH]cn1)C(=O)N[C@@H](CCC(N)=O)C(=O)N[C@@H](CCCNC(=N)N)C(=O)N[C@@H](CCCCN)C(=O)N[C@@H](Cc1ccc(O)cc1)C(=O)N[C@@H](CCCNC(=N)N)C(=O)N[C@@H](CCCNC(=N)N)C(=O)N[C@@H](Cc1ccc(O)cc1)C(=O)NCC(=O)NCC(=O)N[C@H](CCCCN)C(=O)N[C@H](CC(C)C)C(=O)N[C@H](C)C(=O)N[C@H](CCCCN)C(=O)N[C@H](CC(C)C)C(=O)N[C@H](C)C(=O)N[C@H](CCCCN)C(=O)N[C@H](CCCCN)C(=O)N[C@H](CC(C)C)C(=O)N[C@H](C)C(=O)N[C@H](CCCCN)C(=O)N[C@H](CC(C)C)C(=O)N[C@H](C)C(=O)N[C@H](CCCCN)C(N)=O [S36-klaklak, RRRHQRKYRRYGG-klaklakklaklak] (Ac-RRRHQRKYRRYGG[dK][dL][dA][dK][dL][dA][dK][dK][dL][dA][dK][dL][dA][dK]-NH2) | – | reduction in cell viability | EC50 (HeLa cells; 16 h): 11.2 µM |
| N=C(N)NCCC[C@H](NC(=O)c1ccc2c(c1)C(=O)OC21c2ccc(O)cc2Oc2cc(O)ccc21)C(=O)N[C@@H](CCCNC(=N)N)C(=O)N[C@@H](CCCNC(=N)N)C(=O)N[C@@H](Cc1c[nH]cn1)C(=O)N[C@@H](CCC(N)=O)C(=O)N[C@@H](CCCNC(=N)N)C(=O)N[C@@H](CCCCN)C(=O)N[C@@H](Cc1ccc(O)cc1)C(=O)N[C@@H](CCCNC(=N)N)C(=O)N[C@@H](CCCNC(=N)N)C(=O)N[C@@H](Cc1ccc(O)cc1)C(N)=O [S36, RRRHQRKYRRY] (5FAM-RRRHQRKYRRY-NH2) | 3 | – | – |
| CC(C)C[C@H](NC(=O)[C@H](Cc1ccccc1)NC(=O)c1ccc2c(c1)C(=O)OC21c2ccc(O)cc2Oc2cc(O)ccc21)C(=O)N[C@@H](CCCNC(=N)N)C(=O)N[C@@H](CCCNC(=N)N)C(=O)N[C@@H](CCCNC(=N)N)C(=O)N[C@@H](CCCNC(=N)N)C(=O)N[C@@H](CCCNC(=N)N)C(=O)N[C@@H](Cc1ccccc1)C(=O)N[C@H](C(=O)N[C@@H](CCCNC(=N)N)C(=O)N[C@@H](CCC(N)=O)C(=O)N[C@H](C(N)=O)[C@@H](C)O)[C@@H](C)O [S40, FLRRRRRFTRQT] (5FAM-FLRRRRRFTRQT-NH2) | 8 | – | – |
| CC(C)C[C@H](NC(=O)[C@H](CCCCN)NC(=O)[C@H](CCCCN)NC(=O)[C@H](CC(C)C)NC(=O)[C@@H](NC(=O)[C@H](CCCCN)NC(=O)[C@H](CCCCN)NC(=O)c1ccc2c(c1)C(=O)OC21c2ccc(O)cc2Oc2cc(O)ccc21)[C@@H](C)O)C(=O)N[C@@H](Cc1c[nH]c2ccccc12)C(=O)N[C@@H](CCCCN)C(=O)N[C@@H](CCCCN)C(=O)N[C@@H](CCCCN)C(=O)N[C@@H](CCCCN)C(=O)N[C@@H](CCCNC(=N)N)C(=O)N[C@@H](CCCCN)C(N)=O [S24, KKTLKKLWKKKKRK] (5FAM-KKTLKKLWKKKKRK-NH2) | 10 | – | – |
